Measured values taken from patent US20090291971A1, “HETEROARYL ETHERS AND PROCESSES FOR THEIR PREPARATION” (Wyeth, priority 2007, published 2009).

Key:
Assay type in all cases: biochemical
PI3K alpha = PI3K alpha (Homo sapiens, UniProt P42336); assay: PI3 Kinase Assay (PI3K alpha)
Description: (§1) PI3-Kinase reactions were performed in […], pH 7, […], and 25 μM ATP, with diC8-PI(4,5)P2 (Echelon, Salt Lake City Utah) as substrate. Nunc 384 well black polypropylene fluorescent plates were used for PI3K assays. Reactions were quenched by the addition of EDTA to a final concentration of […]. Final reaction volumes were […]. For evaluation of PI 3-K inhibitors, 5 ng of enzyme and 2.5 μM of substrate was used per […] reaction volume, and inhibitor concentrations ranged from 100 μM to […]; the final level of DMSO in reactions never exceeded 2%. Reactions were allowed to proceed for one hour at 25° C. After 1 hour, GST-tagged GRP1 (general receptor for phosphoinositides) PH domain fusion protein was added to a final concentration of 100 nM, and BODIPY-TMRI(1,3,4,5)P4 (Echelon) was also added to a final concentration of 5 nM. Final sample volumes were 25 μl with a final DMSO concentration of 0.8%. Assay Plates were read on Perkin-Elmer Envision plate readers with appropriate filters for Tamra [BODIPY-TMRI(1,3,4,5)P4]. Data obtained were used to calculate enzymatic activity and enzyme inhibition by inhibitor compounds.

PI3K gamma = PI3K gamma (Homo sapiens, UniProt P48736); assay: PI3 Kinase Assay (PI3K gamma); conditions: 1 h
Description: as §1

recombinant human B-Raf = molecular target: T1, recombinant human B-Raf (Homo sapiens, UniProt P15056); assay: B-Raf Kinase Assay
T1 construct: Flag; GST; purchased Upstate; host or cells: Sf21 insect cells
Description: Reagents: Flag/GST-tagged recombinant human B-Raf produced in Sf21 insect cells (purchased from Upstate), human Mek-1-GST, non-active recombinant protein produced in E. coli (from Upstate); and a phospho-MEK1 specific poly-clonal Ab from Cell Signaling Technology (cat. #9121).
• B-Raf-1 is used to phosphorylate GST-MEK1. MEK1 phosphorylation is measured by a phospho-specific antibody (from Cell Signaling Technology, cat. #9121) that detects phosphorylation of two serine residues at positions 217 and 221 on MEK1.
1. Assay Dilution Buffer (ADB): 20 mM MOPS, pH 7.2, 25 mM β-glycerol phosphate, 5 mM EGTA, 1 mM sodium orthovanadate, 1 mM dithiothreitol, 0.01% Triton X-100. 2. Magnesium/ATP Cocktail: ADB solution (minus Triton X-100) plus 200 μM cold ATP and 40 mM magnesium chloride. 3. Active Kinase: Active B-Raf: used at 0.2 nM per assay point. 4. Non-active GST-MEK1: Use at 2.8 nM final concentration). 5. TBST-Tris (50 mM, pH 7.5), NaCl (150 mM), Tween-20 (0.05%)
7. Anti pMEK Ab (Upstate) 8. Anti-rabbit Ab/Europium conjugate (Wallac)
1. Add 25 μl of ADB containing B-Raf and Mek per assay (i.e. per well of a 96 well plate) 2. Add 25 μl of 0.2 mM ATP and 40 mM magnesium chloride in Magnesium/ATP Cocktail. 3. Incubate for 45 minutes at RT with occasional shaking. 4. Transfer this mixture to an anti-GST Ab coated 96 well plate (Nunc Immunosorb plates coated o/n with a-GST. Plate freshly washed 3× with TBS-T before use. 5. Incubate o/n at […] in cold room. 6. Wash 3× with TBST, add Anti-Phospho MEK1 (1:1000, dilution depends upon lot) 7. Incubate for 60 minutes at RT in a shaking incubator 8. Wash 3× with TBST, add Anti-rabbit Ab/Europium conjugate (Wallac) (1:500, dilution depends upon lot) 9. Incubate for 60 minutes at RT on a platform shaker. 10. Wash plate 3× with TBS-T 11. Add 100 ul of Wallac Delfia Enhancement Solution and shake for 10 minutes. 12. Read plates in Wallac Victor model Plate Reader. 13. Collect data analyze in Excel for single point and IC50 determinations.

human recombinant MK2 = molecular target: T2, human recombinant MK2 (Homo sapiens, UniProt P49137); assay: MK2 kinase ELISA based assay
T2 construct: human recombinant MK2 (25 nM) containing residues 41 through 353
Description: MK2 kinase activity was assessed using human recombinant MK2 (25 nM) containing residues 41 through 353 in an ELISA based assay. The kinase reaction was performed on 96-well streptavidin coated plates using a biotinylated 16-mer peptide as a substrate derived from LSP1 in 20 mM Hepes pH7.4, 10 mM MgCl2, 3 mM DTT, 1 uM ATP, 0.01% Triton X100, 2% DMSO and various compound concentrations in a final volume of 100 ul. The reaction was stopped after 30 min incubation at room temperature with 50 ul of 0.5M EDTA and washed 6 times in PBS 0.05% Tween 20. Polyclonal anti phospho-LSP1 antibodies was then added to the plate along with a Goat anti-Rabbit antibody labeled with europium in 20 mM MOPS, 150 mM NaCl, 0.025% Tween 20, 0.02% gelatin, 1% BSA for 1 hour at room temperature. The plate was then washed 6 times in PBS 0.05% Tween 20 and enhancement solution from Perkin Elmer was added before counting on a Victor 2 reader from Perkin Elmer.

human recombinant IRAK4 = molecular target: T3, human recombinant IRAK4 (Homo sapiens, UniProt Q9NWZ3); assay: IRAK4 kinase ELISA based assay
T3 construct: human recombinant IRAK4 (4 nM) containing residues 154 through 460
T3 sequence (Q9NWZ3 154-460): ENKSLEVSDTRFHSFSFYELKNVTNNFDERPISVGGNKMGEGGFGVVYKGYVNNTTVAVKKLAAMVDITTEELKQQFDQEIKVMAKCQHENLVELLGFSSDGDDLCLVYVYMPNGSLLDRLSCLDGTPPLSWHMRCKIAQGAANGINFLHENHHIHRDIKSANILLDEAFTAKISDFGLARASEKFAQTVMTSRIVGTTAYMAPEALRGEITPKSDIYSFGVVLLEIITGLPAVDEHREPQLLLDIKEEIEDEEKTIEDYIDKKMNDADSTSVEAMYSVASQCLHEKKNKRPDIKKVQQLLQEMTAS
Description: IRAK4 kinase activity was assessed using human recombinant IRAK4 (4 nM) containing residues 154 through 460 in an ELISA based assay. The kinase reaction was performed on 96-well streptavidin coated plates using a biotinylated 11-mer peptide derived from MK2 in 20 mM Hepes pH7.4, 10 mM MgCl2, 3 mM DTT, 600 uM ATP, 0.01% Triton X100, 5% DMSO and various compound concentrations in a final volume of 100 ul. The reaction was stopped after 60 min incubation at room temperature with 50 ul of 0.5M EDTA and washed 6 times in PBS 0.05% Tween 20. A Rabbit polyclonal anti-phospho-threonine antibody was then added to the plate along with a Goat anti-Rabbit antibody labeled with europium in 20 mM MOPS, 150 mM NaCl, 0.025% Tween 20, 0.02% gelatin, 1% BSA for 1 hour at room temperature. The plate was then washed 6 times in PBS 0.05% Tween 20 and enhancement solution from Perkin Elmer was added before counting on a Victor 2 reader from Perkin Elmer.

T2 sequence (P49137 41-353): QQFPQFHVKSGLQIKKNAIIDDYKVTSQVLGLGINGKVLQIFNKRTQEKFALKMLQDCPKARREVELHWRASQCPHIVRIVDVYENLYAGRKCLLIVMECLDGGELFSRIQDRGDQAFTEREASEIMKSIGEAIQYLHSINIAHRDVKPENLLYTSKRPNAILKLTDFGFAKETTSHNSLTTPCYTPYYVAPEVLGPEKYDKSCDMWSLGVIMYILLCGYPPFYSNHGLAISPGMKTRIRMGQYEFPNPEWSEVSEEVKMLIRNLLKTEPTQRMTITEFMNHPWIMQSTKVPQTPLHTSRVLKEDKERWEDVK
T1 sequence (P15056 whole entry): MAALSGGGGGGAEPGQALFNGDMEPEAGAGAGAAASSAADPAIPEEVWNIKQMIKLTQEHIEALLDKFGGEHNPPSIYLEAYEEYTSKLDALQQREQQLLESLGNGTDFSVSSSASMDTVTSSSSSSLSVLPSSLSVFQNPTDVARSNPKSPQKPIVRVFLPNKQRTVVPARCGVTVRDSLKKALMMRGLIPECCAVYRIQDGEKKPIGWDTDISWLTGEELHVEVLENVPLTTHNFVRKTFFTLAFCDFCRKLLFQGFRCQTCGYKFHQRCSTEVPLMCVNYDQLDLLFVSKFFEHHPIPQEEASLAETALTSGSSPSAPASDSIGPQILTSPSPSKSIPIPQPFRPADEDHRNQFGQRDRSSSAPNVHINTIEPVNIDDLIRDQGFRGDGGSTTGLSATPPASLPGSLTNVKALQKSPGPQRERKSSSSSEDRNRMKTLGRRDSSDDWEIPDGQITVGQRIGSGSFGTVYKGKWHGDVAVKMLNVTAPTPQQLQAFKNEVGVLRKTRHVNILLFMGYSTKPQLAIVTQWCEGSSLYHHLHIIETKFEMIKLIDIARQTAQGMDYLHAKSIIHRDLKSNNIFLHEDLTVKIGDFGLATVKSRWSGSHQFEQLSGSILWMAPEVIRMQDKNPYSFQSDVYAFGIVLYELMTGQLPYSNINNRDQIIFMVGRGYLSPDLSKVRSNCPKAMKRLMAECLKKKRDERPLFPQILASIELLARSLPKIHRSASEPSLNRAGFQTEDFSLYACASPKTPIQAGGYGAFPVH
Sequence of PI3K gamma (P48736 whole entry, species assumed): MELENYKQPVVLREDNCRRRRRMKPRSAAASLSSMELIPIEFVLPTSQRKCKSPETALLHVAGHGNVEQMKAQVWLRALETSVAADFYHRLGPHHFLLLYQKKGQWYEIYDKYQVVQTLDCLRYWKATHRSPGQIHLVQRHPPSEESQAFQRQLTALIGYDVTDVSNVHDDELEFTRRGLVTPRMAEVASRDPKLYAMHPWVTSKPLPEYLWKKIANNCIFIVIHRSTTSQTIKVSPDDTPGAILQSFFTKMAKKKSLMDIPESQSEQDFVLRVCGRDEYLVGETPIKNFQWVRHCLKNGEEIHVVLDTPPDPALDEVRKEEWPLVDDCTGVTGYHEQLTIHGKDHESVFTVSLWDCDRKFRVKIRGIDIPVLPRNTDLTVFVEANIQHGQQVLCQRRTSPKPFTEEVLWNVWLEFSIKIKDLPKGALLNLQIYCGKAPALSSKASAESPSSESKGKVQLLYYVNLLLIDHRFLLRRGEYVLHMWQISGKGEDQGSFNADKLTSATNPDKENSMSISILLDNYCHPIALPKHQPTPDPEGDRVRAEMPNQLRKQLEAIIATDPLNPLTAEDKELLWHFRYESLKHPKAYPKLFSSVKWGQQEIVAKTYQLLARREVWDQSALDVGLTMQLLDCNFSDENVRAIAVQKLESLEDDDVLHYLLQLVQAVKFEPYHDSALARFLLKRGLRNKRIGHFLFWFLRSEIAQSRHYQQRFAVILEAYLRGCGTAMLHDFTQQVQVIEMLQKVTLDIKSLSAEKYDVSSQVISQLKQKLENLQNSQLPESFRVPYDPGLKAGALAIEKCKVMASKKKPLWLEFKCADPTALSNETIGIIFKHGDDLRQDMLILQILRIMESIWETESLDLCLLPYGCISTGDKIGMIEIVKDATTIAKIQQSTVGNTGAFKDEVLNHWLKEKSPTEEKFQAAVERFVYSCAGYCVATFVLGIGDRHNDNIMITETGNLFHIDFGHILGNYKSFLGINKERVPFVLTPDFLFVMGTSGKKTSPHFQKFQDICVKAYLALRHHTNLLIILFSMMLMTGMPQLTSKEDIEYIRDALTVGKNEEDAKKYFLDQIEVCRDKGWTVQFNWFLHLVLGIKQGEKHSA
Sequence of PI3K alpha (P42336 whole entry, species assumed, the tested form may be a part): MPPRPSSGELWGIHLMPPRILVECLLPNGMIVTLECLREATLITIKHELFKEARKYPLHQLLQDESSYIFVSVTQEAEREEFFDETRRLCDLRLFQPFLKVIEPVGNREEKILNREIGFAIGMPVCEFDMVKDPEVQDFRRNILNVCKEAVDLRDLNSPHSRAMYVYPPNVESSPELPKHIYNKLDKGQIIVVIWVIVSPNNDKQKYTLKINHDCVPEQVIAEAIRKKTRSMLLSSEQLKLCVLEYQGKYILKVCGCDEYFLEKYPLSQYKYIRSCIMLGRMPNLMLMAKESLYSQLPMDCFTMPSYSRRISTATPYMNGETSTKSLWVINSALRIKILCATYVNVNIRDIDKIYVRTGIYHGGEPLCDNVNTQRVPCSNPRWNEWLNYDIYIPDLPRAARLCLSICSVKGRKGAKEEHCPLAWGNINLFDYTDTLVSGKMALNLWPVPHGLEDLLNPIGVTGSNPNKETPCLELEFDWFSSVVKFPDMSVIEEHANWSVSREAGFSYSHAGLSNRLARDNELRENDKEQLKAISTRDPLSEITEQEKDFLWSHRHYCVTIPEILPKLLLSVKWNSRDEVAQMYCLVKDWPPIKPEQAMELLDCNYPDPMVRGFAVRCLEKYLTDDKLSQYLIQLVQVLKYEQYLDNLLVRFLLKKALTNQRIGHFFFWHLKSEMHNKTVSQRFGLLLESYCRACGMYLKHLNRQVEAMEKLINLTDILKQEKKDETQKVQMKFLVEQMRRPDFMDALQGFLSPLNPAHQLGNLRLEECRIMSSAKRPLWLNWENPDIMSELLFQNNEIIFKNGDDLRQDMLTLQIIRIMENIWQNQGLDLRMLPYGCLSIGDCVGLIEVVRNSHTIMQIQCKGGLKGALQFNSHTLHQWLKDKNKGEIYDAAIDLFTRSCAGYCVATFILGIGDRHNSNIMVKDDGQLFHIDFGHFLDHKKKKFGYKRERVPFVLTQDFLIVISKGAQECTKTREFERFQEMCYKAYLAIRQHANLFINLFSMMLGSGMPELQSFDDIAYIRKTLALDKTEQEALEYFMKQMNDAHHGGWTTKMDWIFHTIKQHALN
Sequence of PI3K alpha (P27986 whole entry partner, species assumed, the tested form may be a part): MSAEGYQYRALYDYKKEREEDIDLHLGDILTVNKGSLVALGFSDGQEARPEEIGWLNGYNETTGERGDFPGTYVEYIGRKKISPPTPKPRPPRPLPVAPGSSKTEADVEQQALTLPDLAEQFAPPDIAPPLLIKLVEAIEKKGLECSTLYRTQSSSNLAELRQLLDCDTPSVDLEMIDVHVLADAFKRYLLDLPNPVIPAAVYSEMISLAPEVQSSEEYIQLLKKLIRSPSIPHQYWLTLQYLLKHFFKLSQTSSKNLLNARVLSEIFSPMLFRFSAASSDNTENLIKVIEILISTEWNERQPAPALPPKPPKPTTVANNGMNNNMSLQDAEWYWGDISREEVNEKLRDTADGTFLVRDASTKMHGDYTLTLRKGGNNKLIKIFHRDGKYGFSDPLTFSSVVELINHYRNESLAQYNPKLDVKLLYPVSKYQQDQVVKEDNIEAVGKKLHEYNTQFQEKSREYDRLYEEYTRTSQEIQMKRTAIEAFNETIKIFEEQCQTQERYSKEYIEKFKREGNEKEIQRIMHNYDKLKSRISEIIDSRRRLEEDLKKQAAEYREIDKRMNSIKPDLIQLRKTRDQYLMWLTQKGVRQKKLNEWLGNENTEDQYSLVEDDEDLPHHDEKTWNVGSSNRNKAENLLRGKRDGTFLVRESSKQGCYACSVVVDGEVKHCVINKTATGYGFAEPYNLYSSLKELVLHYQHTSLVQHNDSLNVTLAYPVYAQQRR

| Structure (SMILES) | inhibition at 30 µM (PI3K alpha) [%] | inhibition at 30 µM (PI3K gamma) [%] | inhibition at 10 µM (recombinant human B-Raf) [%] | inhibition at 30 µM (human recombinant MK2) [%] | inhibition at 10 µM (human recombinant IRAK4) [%] |
| --- | --- | --- | --- | --- | --- |
| COc1ccc(Oc2ncnc3ccccc23)cc1 [Example 20, 4-(4-Methoxyphenoxy)quinazoline] | 65 | 4 |  |  |  |
| c1ccc2c(Oc3ccc4[nH]ccc4c3)ncnc2c1 [Example 29, 4-(1H-Indol-5-yloxy)quinazoline] | 68 | 21 | 21 |  |  |
| O=[N+]([O-])c1cccc(Oc2ncnc3ccccc23)c1 [Example 19, 4-(3-Nitrophenoxy)quinazoline] | 24 | < 10 |  |  |  |
| N#Cc1cccc(Oc2ncnc3sccc23)c1 [Example 32, 3-(Thieno[2,3-d]pyrimidin-4-yloxy)benzonitrile] | 32 | < 10 |  |  |  |
| COC(=O)c1sc2ncnc(Oc3ccccc3)c2c1C [Example 36, Methyl 5-methyl-4-phenoxythieno[2,3-d]pyrimidine-6-carboxylate] | 63 | 36 |  |  |  |
| FC(F)(F)c1ccc(Oc2ncnc3ccccc23)cc1 [Example 21, 4-(4-(Trifluoromethyl)phenoxy)quinazoline] | 36 | 6 |  |  |  |
| COc1ncccc1Oc1ncc(Br)cn1 [Example 57, 5-Bromo-2-(2-methoxypyridin-3-yloxy)pyrimidine] | 44 | < 10 |  |  |  |
| CC(=O)c1ccccc1Oc1ncc(Br)cn1 [compound 44, 1-[2-(5-Bromo-pyrimidin-2-yloxy)-phenyl]-ethanone] | 72 | 44 |  |  |  |
| COC(=O)c1sc2ncnc(Oc3cccc(C#N)c3)c2c1C [Example 38, Methyl 4-(3-cyanophenoxy)-5-methylthieno[2,3-d]pyrimidine-6-carboxylate] | 40 | 23 |  |  |  |
| N#Cc1ccc(Oc2ncnc3ccccc23)cc1 [Example 24, 4-(Quinazolin-4-yloxy)benzonitrile] | 18 | < 10 |  |  |  |
| CC(=O)c1ccc(Oc2ncnc3ccccc23)cc1 [Example 22, 1-(4-(Quinazolin-4-yloxy)phenyl)ethanone] | 34 | 45 |  |  |  |
| O=[N+]([O-])c1cccc(Oc2ncnc3sccc23)c1 [Example 34, 4-(3-Nitrophenoxy)thieno[2,3-d]pyrimidine] | 14 | < 10 |  |  |  |
| c1ccc2c(Oc3ccsc3)ncnc2c1 [Example 30, 4-(Thiophen-3-yloxy)quinazoline] | 87 | 55 | 14 | 34 | 39 |
| COC(=O)c1sc2ncnc(Oc3c(C)noc3C)c2c1C [Example 39, Methyl 4-(3,5-dimethylisoxazol-4-yloxy)-5-methylthieno[2,3-d]pyrimidine-6-carboxylate] | 24 | 15 |  | 32 | 21 |
| COc1ncccc1Oc1ncnc2ccccc12 [Example 28, 4-(2-Methoxypyridin-3-yloxy)quinazoline] | 22 | < 10 |  |  |  |
| Cc1noc(C)c1Oc1ncnc2sccc12 [Example 35, 3,5-Dimethyl-4-(thieno[2,3-d]pyrimidin-4-yloxy)isoxazole] | 26 | 11 |  |  |  |
| COC(=O)c1sc2ncnc(Oc3cccc([N+](=O)[O-])c3)c2c1C [Example 37, Methyl 5-methyl-4-(3-nitrophenoxy)thieno[2,3-d]pyrimidine-6-carboxylate] | 24 | 16 |  |  |  |
| COc1ncccc1Oc1ccn(C)c(=O)n1 [Example 59, 4-(2-Methoxypyridin-3-yloxy)-1-methylpyrimidin-2(1H)-one] | 46 | < 10 |  |  |  |
| Cn1ccc(Oc2ccccc2)nc1=O [Example 58, 1-Methyl-4-phenoxypyrimidin-2(1H)-one] | 32 | < 10 | 17 |  |  |
| Clc1ccc(Oc2ncnc3ccccc23)cn1 [Example 25, 4-(6-Chloropyridin-3-yloxy)quinazoline] | 42 | 11 | 20 | 31 | 19 |
